Among the data in patent US10259823B2, “GLP-1 receptor modulators” (Celgene International II SÀRL, priority 2013, dated 2019) are EC50 values, retold here.

A value given as a limit tells only on which side of the number the result lay.

The EC50 is the concentration needed to bring the measured effect to its halfway point.

In this assay the target is T1, GLP-1R (Homo sapiens, UniProt P43220).
T1 construct: host or cells: CRE-bla CHO-K1
T1 sequence (P43220 24-463): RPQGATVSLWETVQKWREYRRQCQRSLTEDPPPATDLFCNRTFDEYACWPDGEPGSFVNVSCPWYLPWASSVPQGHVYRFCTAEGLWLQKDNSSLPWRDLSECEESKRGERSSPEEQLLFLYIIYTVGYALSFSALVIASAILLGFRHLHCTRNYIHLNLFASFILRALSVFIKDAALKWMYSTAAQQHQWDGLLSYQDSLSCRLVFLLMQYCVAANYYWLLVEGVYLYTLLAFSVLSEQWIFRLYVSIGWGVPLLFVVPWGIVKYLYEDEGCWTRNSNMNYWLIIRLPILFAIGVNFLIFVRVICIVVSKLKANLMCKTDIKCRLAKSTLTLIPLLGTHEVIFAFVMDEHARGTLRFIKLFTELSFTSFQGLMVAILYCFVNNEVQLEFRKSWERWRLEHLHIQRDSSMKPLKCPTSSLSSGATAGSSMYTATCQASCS
T1 sequence (P01275 100-127 partner limits assumed): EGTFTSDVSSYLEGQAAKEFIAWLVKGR
The assay is described as follows: EC20 GLP-1(9-36) PAM cAMP assay: dose response of compound in the presence of fixed concentration of GLP-1(9-36). The assay is classed as cell-based. As to conditions: GLP-1R CRE-bla CHO-K1 cells, compound dose response with fixed GLP-1(9-36), 30 min at 37° C. The protocol:
EC20 GLP-1(9-36) PAM cAMP assay: dose response of compound in the presence of fixed concentration of GLP-1 (9-36).
GLP-1R CRE-bla CHO-K1 cells cultured in growth medium (DMEM-High glucose, 10% dialyzed FBS, 0.1 mM NEAA, 25 mM Hepes, 100 U/mL penicillin/100 μg/mL streptomycin, 5 μg/mL Blasticidin, 600 μg/mL Hygromycin) were trypsinized and plated in suspension into 384 well white flat bottom plates at 5000 cells/well in 12 μL assay buffer (Hanks Balanced Salt solution, 10 mM hepes, 0.1% BSA, pH 7.4). A 5× compound dose response curve (12-point) was generated in assay buffer containing 1.5 mM IBMX, 4% DMSO. GLP-1(9-36) was diluted to 4.2 μM in assay buffer containing 1.5 mM IMBX and 4% DMSO. The 5× compound dose response was added (3 μL), followed by 0.5 μL of GLP-1(9-36) and cells were incubated for 30 min at 37° C. Direct detection of cAMP was carried out using DiscoveRx HitHunter cAMP kit according to manufacturer's instructions and luminescence was read using a SpectraMax M5 plate reader. Luminescence was converted to total cAMP using a cAMP standard curve and data was analyzed by non-linear regression to determine the EC50 and Emax.
GLP-1(7-36): […]-NH2 (SEQ ID NO: GLP-1(9-36): […]-NH2(SEQ ID NO: 3) GLP-1(7-36) was purchased from GenScript. GLP-1(9-36) was purchased from Biopeptide Co., Inc.
On the technique in general: cAMP levels reflect the balance of adenylyl cyclase and phosphodiesterase activity.
Consider `CCCCCCCOCCc1ccc(-c2nc(-c3ccc(C(NC(=O)c4ccc(C(C)(C)C)cc4)C(=O)O)cc3)no2)cc1` (centres unmarked) [Compound 71], for which the EC50 was in the range of 2.5 to 5 µM. To `CCCCCCCOc1ccc(-c2cnc(-c3ccc(C[C@H](NC(=O)c4ccc(C(C)(C)C)s4)C(=O)N[C@H]4CCC[C@H]4C(=O)O)cc3)nc2)cc1` [Compound 382] belongs 0.8 to 2.5 µM; to `CCCCCCCOc1ccc(-c2cnc(-c3ccc(C[C@H](NC(=O)c4ccc(C(C)(C)C)cc4)C(=O)NC[C@H]4CCNC4)cc3)nc2)cc1` [Compound 413], 5 to 10 µM; to `CCCCCCCOc1ccc(-c2cnc(-c3ccc(C[C@H](NC(=O)c4ccc(C(C)(C)C)s4)C(=O)N[C@@H](CC(=O)NC4CC4)C(=O)O)cc3)nc2)cc1` [Compound 514], less than 0.8 µM. For `CCCCCCCOc1ccc(-c2cnc(-c3ccc(C[C@H](NC(=O)c4ccc(C(C)(C)C)cc4)C(=O)NC(CCS(C)(=O)=O)C(=O)O)cc3)nc2)cc1` (some centres unmarked) [Compound 570] the value was less than 0.8 µM; for `CCCCCCCOc1ccc(-c2cnc(-c3ccc(C[C@H](NC(=O)c4ccc(C(C)(C)C)cc4)C(=O)N[C@@H](Cc4cn(C)cn4)C(=O)O)cc3)nc2)cc1` [Compound 576], 0.8 to 2.5 µM; for `CCCCCCCOc1ccc(-c2cnc(-c3ccc(C[C@H](NC(=O)c4ccc(C(C)(C)C)s4)C(=O)NC(C(=O)O)c4ccc(C)cc4)cc3)nc2)cc1` (some centres unmarked) [Compound 617], less than 0.8 µM.

As for `CC(C)(C)c1ccc(C(=O)N[C@@H](Cc2ccc(-c3ncc(C4CCC(C(C)(C)C)CC4)cn3)cc2)C(=O)NCCC(=O)O)cc1` (some centres unmarked) [Compound 674], the concentration for a half-maximal effect (EC50) fell in the range of 5 to 10 µM. For `CCCCCCCOC1CCN(c2cnc(-c3ccc(C[C@H](NC(=O)c4ccc(C(C)(C)C)cc4)C(=O)NCCC(=O)O)cc3)nc2)CC1` [Compound 693] the value was 5 to 10 µM; for `C/C=C/CCCOc1ccc(-c2cnc(-c3ccc(C[C@H](NC(=O)c4ccc(C(C)(C)C)cc4)C(=O)NCCC(=O)O)cc3)nc2)cc1` [Compound 714], 2.5 to 5 µM.

`CCCC/C=C/COc1ccc(-c2cnc(-c3ccc(C[C@H](NC(=O)c4ccc(C(C)(C)C)cc4)C(=O)NCCC(=O)O)cc3)nc2)cc1` [Compound 715]: the EC50 lay in the range of 2.5 to 5 µM. To `CCCCCCCOc1ccc(-c2cnc(-c3ccc(C[C@H](NC(=O)c4ccc(OC(C)C)cc4)C(=O)N[C@H](C)C(=O)O)cc3)nc2)cc1` [Compound 820] belongs 2.5 to 5 µM. On to `CCCCCCCOc1ccc(-c2cnc(-c3ccc(C[C@H](NC(=O)c4ccc(OC(F)(F)F)cc4)C(=O)N[C@H](C)C(=O)O)cc3)nc2)cc1` [Compound 821], for which the EC50 was 0.8 to 2.5 µM. For `CCCCCCCOc1ccc(-c2cnc(-c3ccc(C[C@H](NC(=O)[C@H]4CC[C@H](C(C)(C)C)CC4)C(=O)N4CC[C@H](C(=O)O)C4)cc3)nc2)cc1` [Compound 858] the value was 0.8 to 2.5 µM; for `CCCCCCCOc1ccc(-c2cnc(-c3ccc(C[C@H](NC(=O)c4oc(C(C)(C)C)cc4C)C(=O)N4CC[C@H](C(=O)O)C4)cc3)nc2)cc1` [Compound 866], 2.5 to 5 µM; for `CC(C)(C)CCCOc1ccc(-c2cnc(-c3ccc(C[C@H](NC(=O)c4ccc(C(C)(C)C)s4)C(=O)NC(C(=O)O)C(O)c4ccccc4)cc3)nc2)cc1` (some centres unmarked) [Compound 944], less than 0.8 µM.

`C[C@@H](NC(=O)[C@H](Cc1ccc(-c2ncc(-c3ccc(OCc4ccccc4)cc3F)cn2)cc1)NC(=O)c1ccc(C(C)(C)C)s1)C(=O)O` [Compound 1024]: the EC50 lay in the range of 0.8 to 2.5 µM.
